In US20130236922A1, “COPPER(I)-ION SELECTIVE FLUORESCENT PROBE, METHOD FOR PREPARING THE SAME, METHOD FOR DIAGNOSING MALIGNANT DISEASE AND DIAGNOSIS KIT USING THE PROBE” (priority 2011, published 2013):

Columns and labels:
[1] = Dissociation constant for the multiphoton process of the zinc(II) ion-selective probe; assay type: binding; conditions: Zn(II) ions; read-out: Dissociation constant (KdTP) for the multiphoton process
Source text: Accordingly, the compound could be used to detect Zn(II) ions in the picomolar (pM) to nanomolar (nM) range by multiphoton microscopy.

[2] = One-photon fluorescence intensity at different pH's with and without copper(I) ions; conditions: compound 2 μM, HEPES buffer, 0 and 2 μM copper(I) ions, biologically significant pH ranges, excitation 365 nm
Source text: Light with a wavelength of 365 nm was used for excitation. […] Thus, from FIG. 5 and FIG. 6, it can be seen that the compound of Chemical Formula 2 according to the present disclosure is capable of detecting copper(I) ions with little interference by pH or other metal ion.

HeLa cells = assay: Two-photon microscopy detection of copper(I) ions in cultured HeLa cells; assay type: cell-based; conditions: compound 2 μM, 37° C., 20 minutes
Source text: In order to investigate the applicability of the compound of Chemical Formula 2 in biological cells, copper(I) ions in cultured HeLa cells were detected by two-photon microscopy.

[3] = Two-photon fluorescence spectra in the presence of copper(I) ions (Fd value); assay type: physicochemical; conditions: at 750 nm, HEPES buffer, 2 μM copper(I) ions
Source text: Referring to FIG. 7, the two-photon spectrum of the compound of Chemical Formula 2-Cu^+ complex in HEPES buffer indicated an Fd value of 67 GM at 750 nm, more than 13-fold as compared to BODIPY (<5 GM 750 nm). Accordingly, it can be conjectured that a sample stained with the compound of Chemical Formula 2 gives a much brighter two-photon image than one stained with the BODIPY dye.

[4] = Reactivity for copper(I) ions compared to competing metal ions (relative fluorescence intensity); conditions: compound 2 μM
Protocol: In FIG. 5, open bars show relative fluorescence intensity of the compound of Chemical Formula 2 (2 μM) resulting from reaction with Na^+, K^+, Mg^2+ and Ca^2+ (1 mM), Hg^2+ (2 μM) and other cations (50 mM) in 20 mM HEPES buffer (pH 7.0) before adding copper(I) ions, and filled bars show relative fluorescence intensity after adding 2 μM copper(I) ions (The cations indicated as numbers below the bars are as follows: (1) Cu^+; (2) Na^+; (3) K^+; (4) Mg^2+; (5) Ca^2+; (6) Mn^2+; (7) Fe^2+, (8) Co^2+; (9) Ni^2+; (10) Cu^2+; (11) Zn^2+; (12) Hg^2+).

[5] = One-photon and two-photon fluorescence titration with free copper(I) ions; assay type: binding; conditions: for Kd: HEPES 20 mM, thiourea 100 μM, pH 7.0, 1:1 binding model
Protocol: Absorption spectra were obtained using a Hewlett-Packard 8453 diode array spectrophotometer and fluorescence spectra were obtained using an Amico-Bowman series 2 luminescence spectrometer equipped with a 1-cm standard quartz cell. Fluorescence quantum yield was determined according to the literature using Coumarin 307 as reference compound (J. N. Demas, G. A. Crosby, J. Phys. Chem. 1971, 75, 991).
FIGS. 2A and 2B show one-photon absorption (FIG. 2A) and fluorescence (FIG. 2B) spectra for the compound of Chemical Formula 2 (2 μM) in the presence of free copper(I) ions (0-360 pM). Referring to FIGS. 2A and 2B, when copper(I) ions were added to the compound of Chemical Formula 2 in HEPES buffer, the fluorescence intensity increased gradually with the concentration of the copper(I) ions, without effect on the absorption spectrum. It may be because the metal ion forms a complex with the compound of Chemical Formula 2 and blocks photoinduced electron transfer (PeT). When the concentration of free copper(I) ion was 360 pM, the fluorescence intensity increased by about 4 times. A similar behavior was also observed for two-photon fluorescence spectra (see FIG. 3).
Dissociation constants (Kd) of the compound of Chemical Formula 2 for one-photon and two-photon processes were calculated from fluorescence titration curves (see FIG. 4) (HEPES buffer was used. [HEPES]=20 mM, [thiourea]=100 μM, pH=7.0).

[6] = Solubility in HEPES buffer by the fluorescence method; assay type: physicochemical; conditions: aqueous buffer, HEPES buffer ([HEPES]=20 mM, pH 7.0)
Protocol: FIGS. 1A and 1B show normalized absorption (FIG. 1A) and fluorescence (FIG. 1B) spectra of the compound of Chemical Formula 2 in 1,4-dioxane, DMF, ethanol and HEPES buffer ([HEPES]=20 mM, pH 7.0). Light with a wavelength of 365 nm was used for excitation. Solubility of the compound of Chemical Formula 2 in HEPES buffer ([HEPES]=20 mM, pH 7.0) was measured as 4.0 μM by the fluorescence method disclosed in the literature (H. M. Kim and B. R. Cho, Acc. Chem. Res., 2009, 42, 863; M. K. Kim, C. S. Lim, J. T. Hong, J. H. Han, H. Y. Jang, H. M. Kim and B. R. Cho, Angew. Chem., Int. Ed., 2010, 49, 364; J. H. Lee, C. S. Lim, Y. S. Tian, J. H. Han and B. R. Cho, J. Am. Chem. Soc., 2010, 132, 1216; H. M. Kim and B. R. Cho, Chem. Asian J., 2011, 6, 58), which is sufficient for staining of cells.

CC(=O)c1ccc2cc(N(C)CC(=O)Nc3ccc(NCCN(Cc4ccccn4)Cc4ccccn4)cc3)ccc2c1 [Preparation Example 2]
Kd [1]: 1100 pM

CCSCCSCCN(CCSCCSCC)c1ccc(NC(=O)CN(C)c2ccc3cc(C(C)=O)ccc3c2)cc1 [Chemical Formula 2]
Dependence of reactivity on pH of reaction solutions [2]: irrelevant of the pH
TPM image of labeled HeLa cells (HeLa cells): very bright TPM image
Fd value of the Cu+ complex [3]: 67 GM
Interference by Hg2+ ([4]; Hg2+ 2 μM, 20 mM HEPES pH 7.0): only exception
Interference by competing metal ions Na+, K+, Mg2+, Ca2+, Mn2+, Fe2+, Co2+, Ni2+, Cu2+, Zn2+ ([4]; 20 mM HEPES pH 7.0, before and after adding 2 μM copper(I) ions): not interfered
Kd ([5]; read-out: Dissociation constant (Kd) for the copper(I) ion, one-photon process): 16 ± 2 pM
Kd ([5]; read-out: Dissociation constant (Kd) for the copper(I) ion, two-photon process): 20 ± 3 pM
Increase of fluorescence intensity on adding copper(I) ions ([5]; free copper(I) ion 360 pM, compound 2 μM, HEPES buffer, one-photon): about 4 times
solubility [6]: 4 µM
